Reference: the supplement of paper PMC10307832

Assays:
Test in all cases: relative viability (nuclei count vs DMSO), 5 days (fraction); higher = more cells survive
Irinotecan = compound: CCc1c2c(nc3ccc(OC(=O)N4CCC(N5CCCCC5)CC4)cc13)-c1cc3c(c(=O)n1C2)COC(=O)[C@]3(O)CC [Irinotecan]
In short: (§1)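 Cells of lung cancer lines were placed in 1536-well plates and kept overnight at 37 °C. Pinning then delivered five library-drug doses (not always all listed), spaced by √10, onto plates anchored with vehicle, and the cells were left 5 days without changing medium. One step fixed, permeabilised and stained them with Hoechst, and MetaXpress counted nuclei in 4× images. Viability, as a median over plates, is treated-well nuclei divided by vehicle-well nuclei, with acceptance only at control CV below 25% and at least one doubling.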

MK-8033 = compound: Cn1cc(-c2cnc3ccc4ccc(CS(=O)(=O)NCc5ccccn5)cc4c(=O)c3c2)cn1 [MK-8033]
In short: as §1

RU-SKI 43 = compound: CC[C@@H](C)CNCC(=O)N1CCC2=C([C@@H]1COC3=CC=CC(=C3)C)C=CS2 [RU-SKI 43]
In short: as §1

Cell Line: UMC-11
- relative viability (Irinotecan; 0.6325 µM): 0.677
- relative viability (Irinotecan; 2 µM): 0.675
- relative viability (Irinotecan; 6.325 µM): 0.401
- relative viability (Irinotecan; 20 µM): 0.264
- relative viability (MK-8033; 0.02 µM): 0.962
- relative viability (MK-8033; 0.06325 µM): 0.837
- relative viability (MK-8033; 0.2 µM): 0.916
- relative viability (MK-8033; 0.6325 µM): 1
- relative viability (MK-8033; 2 µM): 0.982
- relative viability (RU-SKI 43; 0.1 µM): 1.07
- relative viability (RU-SKI 43; 0.3162 µM): 1.11
- relative viability (RU-SKI 43; 1 µM): 1.08
- relative viability (RU-SKI 43; 3.162 µM): 1.07
- relative viability (RU-SKI 43; 10 µM): 0.843
